From patent US8153773B2, “Synthesis and use of anti-reverse phosphorothioate analogs of the messenger RNA cap” (Board of Supervisors of Louisiana State University and …, priority 2007, dated 2012)

Experiments:
[1] = biological target: T1, murine eIF4E (28-217) (Mus musculus, UniProt P63073); experiment: Binding affinities for eIF4E by fluorescence quenching; settings: murine eIF4E (28-217); for KAS: equilibrium association constant, fluorescence quenching; for ΔG°: binding free energy calculated from KAS
T1 construct: (28-217) to phosphorothioate cap analogs, as determined
Method: Binding affinities of S analogs for murine eIF4E were determined by fluorescence quenching. Fluorescence titration measurements were carried out on an LS-50B spectrofluorometer (Perkin Elmer Co.) in 50 mM HEPES/KOH (pH 7.2), 100 mM KCl, 0.5 mM EDTA, 1 mM DTT at 20.0±0.2° C. Aliquots of 1 μl increasing concentration of cap analogue solutions were added to 1.4 ml of […] solutions. Fluorescence intensities (excitation at 280 nm with 2.5 nm bandwidth and detection at 337 nm with 4 nm bandwidth and 290 nm cut-off filter) were corrected taking into account sample dilution and the inner filter effect. Equilibrium association constants (KAS) were determined by fitting the theoretical dependence of the fluorescence intensity on the total concentration of cap analogue to the experimental data points according to equation described previously (See A. Niedzwiecka et al., “Biophysical studies of eIF4E cap-binding protein: recognition of mRNA 5′ cap structure and synthetic fragments of eIF4G and 4E-BP1 proteins,” J. Mol. Biol., vol. 319, pp. 615-635 (2002)). The concentration of protein was fitted as a free parameter of equilibrium equation showing amount of “active” protein. The final KAS was calculated as a weighted average of three to ten independent titrations, with the weights taken as the reciprocals of the numerical standard deviations squared. Numerical nonlinear least-squares regression analysis was performed using ORGIN 6.0 (Microcal Software Inc., USA). The Gibbs free energy of binding was calculated from the KAS value according to the standard equation ΔG°=−RTlnKAS.

[2] = biological target: hDcp2 (Homo sapiens, UniProt Q8IU60); experiment: In vitro RNA decapping assay with recombinant hDcp2; assay type: biochemical; settings: capped 32P-labeled short RNA, recombinant hDcp2, anion exchange HPLC (FIG. 6)
Method: Dcp2 activity was measured with capped 48-nt oligonucleotides as substrates, a truncated form of luciferase mRNA (48 nucleotides). GST-hDcp2 was expressed in Escherichia coli and purified as described by Z. Wang et al., “The hDcp2 protein is a mammalian mRNA decapping enzyme,” Proc. Natl. Acad. Sci. U.S.A., vol. 99, pp. 12663-12668 (2002). Capped oligonucleotides were first subjected to digestion with GST-hDcp2 at 37° C. for 2 h in decapping buffer (10 mM Tris-HCl, pH 7.5, 100 mM potassium acetate, 2 mM magnesium acetate, 0.5 mM MnCl2, 2 mM dithiothreitol, and 0.1 mM spermine). See C. Piccirillo et al., “Functional characterization of the mammalian mRNA decapping enzyme hDcp2,” RNA, vol. 9, pp. 1138-1147 (2003). The reaction mixture was then extracted once with an equal volume of phenol and twice with chloroform, and RNA was precipitated with ethanol. Products of the decapping reaction were further digested with a cocktail of ribonucleases (RiboShredder; Epicentre) at 37° C. for 1 h. The products were resolved by anion-exchange HPLC on a 4.6×250-mm Partisil 10SAX/25 column (Whatman). The gradient consisted of water for 1 min, a linear gradient to 112 mM KH2PO4, pH 4.5, for 20 min, a linear gradient of 112-450 mM KH2PO4 for 15 min, a linear gradient of 450 mM to 1.5 M KH2PO4 for 15 min, and isocratic elution at 1.5 M of KH2PO4 for 9 min, all at a flow rate 1 ml/min.
We tested oligonucleotides capped with either of S-ARCAs for hydrolysis by recombinant hDcp2 to test whether mRNA capped with the various diastereomers of m2^7,2′-OGpppsG and m2^7,2′-OGppspG would differ in their sensitivity to cleavage by Dcp1/Dcp2. See generally Z. Wang et al., “The hDcp2 protein is a mammalian mRNA decapping enzyme,” Proc. Natl. Acad. Sci. U.S.A., vol. 99, pp. 12663-12668 (2002), and Z. Wang et al., “An mRNA Stability Complex Functions with Poly(A)-Binding Protein To Stabilize mRNA In Vitro”, Mol. Cell. Biol., vol. 19, pp. 4552-4560 (1999). Cap analogs used were initially unlabeled, so to follow the products of the digestion reaction we synthesized capped oligonucleotides in the presence of [α-^32P]GTP and a DNA template in which G was the first ribonucleotide specified after the promoter. The oligonucleotides capped with either of the S-ARCAs were subjected to Dcp2 digestion in vitro, after which the products were further digested with a cocktail of ribonucleases (RiboShredder from Epicenter). Any nucleotide on the 5′ side of a G residue acquired a ^32P-labeled 3′-phosphate group after ribonuclease digestion by nearest-neighbor transfer. Anion exchange chromatography was then used to resolve the labeled 3′-nucleoside monophosphates (3′-NMP*), at internal positions in the RNA, from labeled 5′-terminal products (FIG. 6). The latter comprise p3 Gp* derived from uncapped transcripts and m2^7,2′-OGp3 Gp* (when m2^7,2′-OGp3G was used), or pGp* resulting from capped RNA resistant or nonresistant to enzymatic cleavage, respectively. All cap analogs used were ARCAs, which ensured that they were incorporated into RNA exclusively in the correct orientation. This further guaranteed that only one 5′-terminal product (m2^7,2′-OGp3 Gp*) was observed upon ribonuclease treatment. Uncapped RNA is not a substrate for Dcp2, which explains why p3 Gp* product was observed after Dcp2 digestion.
See E. Grudzien et al., “Differential inhibition of mRNA degradation pathways by novel cap analogs,” J. Biol. Chem., vol. 281, pp. 1857-1867 (2006).

[3] = biological target: T2, DcpS (Caenorhabditis elegans, UniProt G5EFS4); experiment: Enzymatic hydrolysis by C. elegans DcpS; assay type: biochemical; set-up: key: the analogs assigned as resistant remained completely undigested under the applied conditions; the analogs assigned as hydrolyzed were hydrolyzed by DcpS with efficiency comparable to the respective unmodified parent compound; settings: conditions giving complete degradation of unmodified parent within 40-90 min, RP HPLC
T2 sequence (G5EFS4 1-311): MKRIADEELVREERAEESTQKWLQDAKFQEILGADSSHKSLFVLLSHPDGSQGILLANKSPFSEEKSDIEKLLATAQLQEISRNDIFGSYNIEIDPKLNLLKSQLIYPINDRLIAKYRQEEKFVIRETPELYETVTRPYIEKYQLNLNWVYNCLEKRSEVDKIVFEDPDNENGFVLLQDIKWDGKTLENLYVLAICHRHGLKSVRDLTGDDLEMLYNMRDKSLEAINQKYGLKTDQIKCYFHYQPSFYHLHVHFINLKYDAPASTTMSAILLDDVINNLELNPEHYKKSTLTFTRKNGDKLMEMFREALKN
Method: (§1) Human and nematode DcpS were expressed in Escherichia coli according to the procedures described previously (L. S. Cohen et al., “Nematode m7 GpppG and m3(2,2,7)GpppG decapping: activities in Ascaris embryos and characterization of C. elegans scavenger DcpS,” RNA, vol. 10, pp. 1609-1624 (2004)). Both proteins were stored at −80° C. in 20 mM Tris buffer, pH 7.5, containing 50 mM KCl, 0.2 mM EDTA, 1 mM DTT, 0.5 mM PMSF, and 20% glycerol. An appropriate cap analog at 1 mM concentration was treated with 5.0 or 7.0 μl of DcpS (from human or C. elegans, respectively) in 500 μl of 50 mM TRIS buffer, pH=7.9, containing 20 mM of MgCl2 and 60 mM of (NH4)2SO4 at 37° C. for 60-90 min. Every 15-20 min a 100 μl sample was collected from the reaction mixture and deactivated by incubation in 90° C. for 3 min. Collected samples were analyzed without further treatment by analytical RP HPLC using a linear gradient of methanol in 0.1 M KH2PO4, pH=6.0, from 0-50% within 15 min and UV-detection at 260 nm.
(§2) The new series of S-analogs were subjected to in vitro enzymatic hydrolysis catalyzed by DcpS from both human and C. elegans sources. In all experiments, the corresponding unmodified cap analog was used as a positive control, i.e., m^7GpppG for non-ARCA S-analogs and m2^7,2′-OGpppG for S-ARCAs. The amount of DcpS enzyme was optimized to provide complete degradation of the control substrate within 40-90 min. The samples collected from reaction mixtures at various time intervals were analyzed by RP HPLC (as described in Materials and Methods).
(§3) In Table 4, cap analogs at 4 μM concentration were subjected to enzymatic digestion by DcpS in conditions leading to complete degradation of the unmodified parent compound (i.e. m^7GpppG for non-ARCA S-analogs and m2^7,2′-OGpppG for ARCAs) within 40-90 min. Samples collected from reaction mixtures at various time intervals were analysed by RP HPLC with UV detection at 260 nm as described in Materials and Methods. […] The result was unchanged even if the reaction time was extended to 24 h, various amounts of enzyme were used, and composition of the reaction buffer was modified.

[4] = biological target: T3, DcpS (Homo sapiens, UniProt Q96C86); experiment: Enzymatic hydrolysis by human DcpS; assay type: biochemical; set-up: key: the analogs assigned as resistant remained completely undigested under the applied conditions; the analogs assigned as hydrolyzed were hydrolyzed by DcpS with efficiency comparable to the respective unmodified parent compound; settings: conditions giving complete degradation of unmodified parent within 40-90 min, RP HPLC
T3 sequence (Q96C86 1-337): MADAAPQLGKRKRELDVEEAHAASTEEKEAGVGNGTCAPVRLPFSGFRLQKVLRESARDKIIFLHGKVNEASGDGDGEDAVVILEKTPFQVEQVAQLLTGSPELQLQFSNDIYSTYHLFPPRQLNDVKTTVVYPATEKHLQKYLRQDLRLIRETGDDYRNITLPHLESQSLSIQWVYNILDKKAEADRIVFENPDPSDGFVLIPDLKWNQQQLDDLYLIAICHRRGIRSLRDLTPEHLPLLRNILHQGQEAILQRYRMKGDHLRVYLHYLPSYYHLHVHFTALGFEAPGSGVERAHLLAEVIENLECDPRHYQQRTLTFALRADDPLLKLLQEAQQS
Method: as §1, §2, §3

T1 sequence (P63073 28-217): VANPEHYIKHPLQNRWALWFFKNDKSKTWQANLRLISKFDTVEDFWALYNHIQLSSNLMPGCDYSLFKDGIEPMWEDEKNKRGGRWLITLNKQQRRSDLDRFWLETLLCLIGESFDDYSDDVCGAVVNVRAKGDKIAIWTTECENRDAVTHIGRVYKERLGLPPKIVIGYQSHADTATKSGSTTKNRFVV

| Molecule | KAS [1] [µM⁻¹] | hydrolysis of capped oligonucleotide by hDcp2 [2] | ΔG° [1] [kcal/mol] | Resistance to enzymatic hydrolysis by DcpS (from C. elegans) [3] | Resistance to enzymatic hydrolysis by DcpS (human) [4] |
| --- | --- | --- | --- | --- | --- |
| CO[C@@H]1[C@H](O)[C@@H](COP(=O)(O)OP(=O)([O-])OP(=O)(O)OP(=O)(O)OC[C@H]2O[C@@H](n3cnc4c(=O)[nH]c(N)nc43)[C@H](O)[C@@H]2O)O[C@H]1n1c[n+](C)c2c(O)nc(N)nc21 [m^7,2′-OGppppG, reference compound] | 99.8 ± 6.0 | – | – | – | – |
| m2^7,2′-OGpppsG | – | no increase in stability toward hDcp2 | – | – | – |
| m2^7,2′-OGpsppG | – | no increase in stability toward hDcp2 | – | – | – |
| m^7GpppsG (D1) [Compound 1a] | 23.6 ± 0.8 | – | -9.88 ± 0.02 | hydrolyzed | hydrolyzed |
| m^7GpppsG (D2) [Compound 1b] | 13.1 ± 0.8 | – | -9.54 ± 0.03 | hydrolyzed | hydrolyzed |
| m^7GppspG (D1) [Compound 2a] | 45.0 ± 1.1 | – | -10.26 ± 0.01 | hydrolyzed | hydrolyzed |
| m^7GppspG (D2) [Compound 2b] | 23.0 ± 0.4 | – | -9.87 | hydrolyzed | hydrolyzed |
| m^7GpsppG (D1) [Compound 3a] | – | – | – | resistant | resistant |
| m^7GpsppG (D2) [Compound 3b] | – | – | – | resistant | resistant |
